Assay results reported in the NIST ThermoML archive (doi:10.1016/j.jct.2004.02.001).
“And” between values parts separate entries of the source, which are not always exact repeats. Equal values may be shown once. Numbers after ± are expanded uncertainties.

Tests used:
[1] = Molar enthalpy of transition or fusion; conditions: DSC
[2] = for vapor or sublimation pressure: Calculated from knudsen effusion weight loss; for Triple point temperature: DTA

CCCc1ccc(C(=O)O)cc1 [4-propylbenzoic acid]
Conditions | Molar enthalpy of transition or fusion, [1] [kcal/mol] | Triple point temperature, [2] [K]
Crystal 1 | 4.7 ± 0.139 | 415.41 ± 0.5
Crystal 2 | 0.81 ± 0.086 | 298.48 ± 0.5

[2], Crystal 1
Conditions | vapor or sublimation pressure
331.16 K | 0.000166 ± 8e-06 kPa and 0.000162 ± 8e-06 kPa and 0.000159 ± 8e-06 kPa
333.14 K | 0.000207 ± 1e-05 kPa
335.17 K | 0.000259 ± 1.3e-05 kPa and 0.000252 ± 1.3e-05 kPa and 0.000246 ± 1.2e-05 kPa
337.17 K | 0.000321 ± 1.6e-05 kPa and 0.000318 ± 1.6e-05 kPa
339.15 K | 0.000397 ± 2e-05 kPa
341.16 K | 0.000501 ± 2.5e-05 kPa and 0.000485 ± 2.4e-05 kPa
343.16 K | 0.00062 ± 3.1e-05 kPa
345.14 K | 0.000772 ± 3.9e-05 kPa and 0.000774 ± 3.9e-05 kPa and 0.000768 ± 3.8e-05 kPa
347.16 K | 0.000968 ± 4.8e-05 kPa and 0.000944 ± 4.7e-05 kPa

CCCCc1ccc(C(=O)O)cc1 [4-butylbenzoic acid]
Conditions | Molar enthalpy of transition or fusion, Crystal 1 [kcal/mol] | Molar enthalpy of transition or fusion, Crystal 2 [kcal/mol] | Molar enthalpy of transition or fusion, Nematic liquid crystal [kcal/mol] | Triple point temperature, Crystal 1 [K] | Triple point temperature, Crystal 2 [K] | Triple point temperature, Nematic liquid crystal [K]
[1] | 2.77 ± 0.0741 | 1.12 ± 0.055 | 0.182 ± 0.0382 | – | – | –
[2] | – | – | – | 374.6 ± 0.5 | 309.64 ± 0.5 | 387.98 ± 0.5

[2], Crystal 1
Conditions | vapor or sublimation pressure
333.16 K | 0.000164 ± 8e-06 kPa and 0.000162 ± 8e-06 kPa
335.16 K | 0.000211 ± 1.1e-05 kPa and 0.000212 ± 1.1e-05 kPa
337.14 K | 0.000263 ± 1.3e-05 kPa and 0.000262 ± 1.3e-05 kPa and 0.000261 ± 1.3e-05 kPa
339.17 K | 0.000323 ± 1.6e-05 kPa and 0.000328 ± 1.6e-05 kPa and 0.00033 ± 1.7e-05 kPa
341.17 K | 0.000422 ± 2.1e-05 kPa and 0.00042 ± 2.1e-05 kPa and 0.000408 ± 2e-05 kPa
343.16 K | 0.00052 ± 2.6e-05 kPa and 0.000522 ± 2.6e-05 kPa
345.15 K | 0.000645 ± 3.2e-05 kPa and 0.000629 ± 3.2e-05 kPa and 0.000622 ± 3.1e-05 kPa
347.13 K | 0.000804 ± 4e-05 kPa and 0.000786 ± 3.9e-05 kPa and 0.00078 ± 3.9e-05 kPa
349.15 K | 0.000994 ± 5e-05 kPa and 0.000968 ± 4.8e-05 kPa and 0.000978 ± 4.9e-05 kPa

CCCCCc1ccc(C(=O)O)cc1 [4-pentylbenzoic acid]
Conditions | Molar enthalpy of transition or fusion, [1] [kcal/mol] | Triple point temperature, [2] [K]
Crystal 1 | 2.72 ± 0.0813 | 362.45 ± 0.5
Nematic liquid crystal | 0.263 ± 0.108 | 399.3 ± 0.5

[2], Crystal 1
Conditions | vapor or sublimation pressure
341.16 K | 0.000174 ± 9e-06 kPa and 0.000177 ± 9e-06 kPa and 0.000169 ± 8e-06 kPa
343.16 K | 0.000223 ± 1.1e-05 kPa and 0.000214 ± 1.1e-05 kPa
345.16 K | 0.000279 ± 1.4e-05 kPa and 0.000271 ± 1.4e-05 kPa
347.18 K | 0.000358 ± 1.8e-05 kPa and 0.000355 ± 1.8e-05 kPa and 0.000345 ± 1.7e-05 kPa
349.18 K | 0.000454 ± 2.3e-05 kPa and 0.000455 ± 2.3e-05 kPa and 0.000439 ± 2.2e-05 kPa
351.17 K | 0.000553 ± 2.8e-05 kPa and 0.000544 ± 2.7e-05 kPa and 0.000533 ± 2.7e-05 kPa
353.16 K | 0.000694 ± 3.5e-05 kPa and 0.000692 ± 3.5e-05 kPa and 0.000682 ± 3.4e-05 kPa
355.16 K | 0.000852 ± 4.3e-05 kPa and 0.000854 ± 4.3e-05 kPa and 0.000828 ± 4.1e-05 kPa
357.16 K | 0.00109 ± 0.00011 kPa and 0.00106 ± 0.00011 kPa

CCc1ccc(C(=O)O)cc1 [4-ethylbenzoic acid]
Crystal
Conditions | Molar enthalpy of transition or fusion [kcal/mol] | Triple point temperature [K]
[1] | 3.06 ± 0.0789 | –
[2] | – | 385.2 ± 0.5

[2], Crystal
Conditions | vapor or sublimation pressure
321.17 K | 0.000214 ± 1.1e-05 kPa and 0.000211 ± 1.1e-05 kPa
323.16 K | 0.000272 ± 1.4e-05 kPa and 0.000265 ± 1.3e-05 kPa and 0.000263 ± 1.3e-05 kPa
325.22 K | 0.000347 ± 1.7e-05 kPa and 0.000335 ± 1.7e-05 kPa
327.17 K | 0.000419 ± 2.1e-05 kPa and 0.000418 ± 2.1e-05 kPa and 0.000436 ± 2.2e-05 kPa
329.34 K | 0.00055 ± 2.8e-05 kPa and 0.000542 ± 2.7e-05 kPa and 0.000527 ± 2.6e-05 kPa
331.2 K | 0.000666 ± 3.3e-05 kPa and 0.000651 ± 3.3e-05 kPa and 0.000637 ± 3.2e-05 kPa
333.14 K | 0.000826 ± 4.1e-05 kPa and 0.000818 ± 4.1e-05 kPa and 0.000803 ± 4e-05 kPa
335.25 K | 0.00103 ± 0.0001 kPa and 0.00101 ± 0.0001 kPa and 0.001 ± 5e-05 kPa

Cc1ccc(C(=O)O)cc1 [4-methylbenzoic acid]
Crystal
Conditions | Molar enthalpy of transition or fusion [kcal/mol] | Triple point temperature [K]
[1] | 5.37 ± 0.124 | –
[2] | – | 452.34 ± 0.5

[2], Crystal
Conditions | vapor or sublimation pressure
319.68 K | 0.000137 ± 7e-06 kPa and 0.000133 ± 7e-06 kPa
322.14 K | 0.000182 ± 9e-06 kPa and 0.000179 ± 9e-06 kPa and 0.000174 ± 9e-06 kPa
324.62 K | 0.000235 ± 1.2e-05 kPa and 0.00023 ± 1.2e-05 kPa
327.08 K | 0.000309 ± 1.5e-05 kPa and 0.000307 ± 1.5e-05 kPa and 0.000312 ± 1.6e-05 kPa
329.73 K | 0.000421 ± 2.1e-05 kPa and 0.000415 ± 2.1e-05 kPa and 0.000408 ± 2e-05 kPa
332.11 K | 0.000536 ± 2.7e-05 kPa and 0.000529 ± 2.6e-05 kPa and 0.000515 ± 2.6e-05 kPa
334.63 K | 0.00071 ± 3.6e-05 kPa and 0.000689 ± 3.4e-05 kPa and 0.000685 ± 3.4e-05 kPa
337.33 K | 0.00092 ± 4.6e-05 kPa and 0.000891 ± 4.5e-05 kPa

CCCCCCCCc1ccc(C(=O)O)cc1 [4-octylbenzoic acid]
Conditions | Molar enthalpy of transition or fusion, Crystal 1 [kcal/mol] | Molar enthalpy of transition or fusion, Crystal 2 [kcal/mol] | Molar enthalpy of transition or fusion, Crystal 3 [kcal/mol] | Molar enthalpy of transition or fusion, Nematic liquid crystal [kcal/mol] | Triple point temperature, Crystal 1 [K] | Triple point temperature, Crystal 2 [K] | Triple point temperature, Crystal 3 [K] | Triple point temperature, Nematic liquid crystal [K]
[1] | 3.42 ± 0.112 | 0.112 ± 0.0263 | 1.29 ± 0.0598 | 0.287 ± 0.0621 | – | – | – | –
[2] | – | – | – | – | 373.25 ± 0.5 | 366.56 ± 0.5 | 305.46 ± 0.5 | 385.54 ± 0.5

[2]
Conditions | vapor or sublimation pressure
356.67 K, Crystal 2 | 8.5e-05 ± 4e-06 kPa and 8.6e-05 ± 4e-06 kPa
358.22 K, Crystal 2 | 0.000102 ± 5e-06 kPa and 0.000103 ± 5e-06 kPa
359.66 K, Crystal 2 | 0.000127 ± 6e-06 kPa and 0.000126 ± 6e-06 kPa
361.16 K, Crystal 2 | 0.00015 ± 8e-06 kPa and 0.000148 ± 7e-06 kPa
362.71 K, Crystal 2 | 0.000182 ± 9e-06 kPa and 0.000181 ± 9e-06 kPa
364.25 K, Crystal 2 | 0.000213 ± 1.1e-05 kPa and 0.000211 ± 1.1e-05 kPa
365.68 K, Crystal 2 | 0.000255 ± 1.3e-05 kPa and 0.000253 ± 1.3e-05 kPa
367.46 K, Crystal 1 | 0.000302 ± 1.5e-05 kPa and 0.000305 ± 1.5e-05 kPa
368.85 K, Crystal 1 | 0.000356 ± 1.8e-05 kPa and 0.000355 ± 1.8e-05 kPa
370.35 K, Crystal 1 | 0.000426 ± 2.1e-05 kPa and 0.000424 ± 2.1e-05 kPa
371.86 K, Crystal 1 | 0.000504 ± 2.5e-05 kPa and 0.000502 ± 2.5e-05 kPa

CCCCCCCc1ccc(C(=O)O)cc1 [4-heptylbenzoic acid]
Conditions | Molar enthalpy of transition or fusion, Crystal 1 [kcal/mol] | Molar enthalpy of transition or fusion, Crystal 2 [kcal/mol] | Molar enthalpy of transition or fusion, Nematic liquid crystal [kcal/mol] | Triple point temperature, Crystal 1 [K] | Triple point temperature, Crystal 2 [K] | Triple point temperature, Nematic liquid crystal [K]
[1] | 3.42 ± 0.112 | 1.77 ± 0.0574 | 0.239 ± 0.0287 | – | – | –
[2] | – | – | – | 374.52 ± 0.5 | 320.17 ± 0.5 | 393.11 ± 0.5

[2], Crystal 1
Conditions | vapor or sublimation pressure
353.16 K | 0.000119 ± 6e-06 kPa and 0.000121 ± 6e-06 kPa and 0.000116 ± 6e-06 kPa
355.19 K | 0.000149 ± 7e-06 kPa and 0.000151 ± 8e-06 kPa
357.19 K | 0.000191 ± 1e-05 kPa and 0.000193 ± 1e-05 kPa and 0.000189 ± 9e-06 kPa
359.18 K | 0.000239 ± 1.2e-05 kPa and 0.00024 ± 1.2e-05 kPa
361.17 K | 0.000312 ± 1.6e-05 kPa and 0.0003 ± 1.5e-05 kPa and 0.000304 ± 1.5e-05 kPa
363.2 K | 0.000392 ± 2e-05 kPa and 0.000381 ± 1.9e-05 kPa
365.18 K | 0.000484 ± 2.4e-05 kPa and 0.000482 ± 2.4e-05 kPa and 0.000475 ± 2.4e-05 kPa
367.14 K | 0.000608 ± 3e-05 kPa and 0.000602 ± 3e-05 kPa and 0.000595 ± 3e-05 kPa
369.2 K | 0.000771 ± 3.9e-05 kPa and 0.000764 ± 3.8e-05 kPa and 0.000751 ± 3.8e-05 kPa

CCCCCCc1ccc(C(=O)O)cc1 [4-hexylbenzoic acid]
Conditions | Molar enthalpy of transition or fusion, Crystal 1 [kcal/mol] | Molar enthalpy of transition or fusion, Crystal 3 [kcal/mol] | Triple point temperature, Crystal 1 [K] | Triple point temperature, Nematic liquid crystal [K]
[1] | 0.227 ± 0.0335 | 3.08 ± 0.0813 | – | –
[2] | – | – | 370.64 ± 0.5 | 385.87 ± 0.5

[2], Crystal 1
Conditions | vapor or sublimation pressure
347.08 K | 0.00015 ± 8e-06 kPa and 0.000151 ± 8e-06 kPa and 0.000146 ± 7e-06 kPa
349.19 K | 0.000193 ± 1e-05 kPa and 0.000191 ± 1e-05 kPa and 0.000189 ± 9e-06 kPa
351.19 K | 0.000245 ± 1.2e-05 kPa and 0.000243 ± 1.2e-05 kPa and 0.000232 ± 1.2e-05 kPa
353.14 K | 0.000298 ± 1.5e-05 kPa and 0.000293 ± 1.5e-05 kPa and 0.000304 ± 1.5e-05 kPa
355.25 K | 0.000391 ± 2e-05 kPa and 0.000388 ± 1.9e-05 kPa and 0.000381 ± 1.9e-05 kPa
357.16 K | 0.000485 ± 2.4e-05 kPa and 0.00047 ± 2.4e-05 kPa and 0.000468 ± 2.3e-05 kPa
359.27 K | 0.000619 ± 3.1e-05 kPa and 0.000614 ± 3.1e-05 kPa and 0.000605 ± 3e-05 kPa
361.35 K | 0.000768 ± 3.8e-05 kPa and 0.000764 ± 3.8e-05 kPa and 0.000736 ± 3.7e-05 kPa
363.14 K | 0.000951 ± 4.8e-05 kPa and 0.000946 ± 4.7e-05 kPa and 0.000919 ± 4.6e-05 kPa
